The text below walks through data of patent US6365379B1, “Zinc finger peptide cleavage of nucleic acids” (ISIS Pharmaceuticals, Inc., priority 1998, dated 2002).

Type in all cases: biochemical
Test [1] deals with 12079 (2′-OMe) single stranded oligonucleotide, SEQ ID 3. The test is described as follows: Initial rate of cleavage of single stranded oligonucleotide by the finger peptide. Also on record: unit not given here. The settings on record: substrate 12079 (2′-OMe); 50 nM wild-type peptide, 500 nM oligonucleotide. On the procedure:
(§1) FIG. 1A depicts the Kinetics of RNA Cleavage by the Finger Peptide of Seq. I.D. No. 1. Multiple turnover kinetics are shown for RNA cleavage by the wild-type peptide (open box) and wild-type peptide coordinated with zinc (open triangle). […] I.D. No. 1. Multiple turnover kinetics were performed in 100 μL containing 50 nM peptide, 100 to 1000 nM or a 20—mer RNA oligonucleotide denominated 9713 and having Seq. I.D. No. 7, as […] 32P labeled RNA in 20 mM Sodium Phosphate, pH 7.0, 100 mM KCl, 1 mM EDTA, and 0.1% NP40. Digestion reaction were incubated at 37° C. and quenched at specific time points in 6 M urea. Digestion products were analyzed by denaturing polyacrylamide gel electrophoresis. […] Single turnover kinetics were performed as described above with the exception that peptide ranging in concentration from 50 to 500 nM was added to 50 nM of the 9713 RNA, Seq. I.D. No. 7.
(§2) Initial rates of cleavage of several single stranded oligonucleotides were determined as described in connection with FIG. 1 with the exception that 50 nM wild-type peptide and 500 nM oligonucleotide were used. Arrows indicate the position of the peptide induced cleavage. The relative intensity of the cleavage product for each respective cleavage sites is indicated by the length of the arrows.

Test [2] concerns 12147 (RNA) single stranded oligonucleotide, SEQ ID 6. The test is described as above. Also noted: unit not given here. The note with it: substrate 12147 (RNA); 50 nM wild-type peptide, 500 nM oligonucleotide. As to the method:
as §1, §2

Test [3] deals with 2755 (RNA) single stranded oligonucleotide, SEQ ID 5. Described as above. The note with it: substrate 2755 (RNA); 50 nM wild-type peptide, 500 nM oligonucleotide. Also noted: unit not given here. As to the method:
as §1, §2

In test [4] the test system is 3058 (RNA) single stranded oligonucleotide, SEQ ID 4. The test is described as above. Also on record: unit not given here. The note with it: substrate 3058 (RNA); 50 nM wild-type peptide, 500 nM oligonucleotide. As to the method: as §1, §2
In test [5] the test system is 4701 (DNA) single stranded oligonucleotide, SEQ ID 2. Described as above. The note with it: substrate 4701 (DNA); 50 nM wild-type peptide, 500 nM oligonucleotide. Also noted: unit not given here. On the procedure: as §1, §2
Test [6] relates to 9713 (RNA) 20-mer RNA oligonucleotide, Seq. I.D. No. 7. The test is described as follows: Initial rate of cleavage of single stranded oligonucleotide by the peptides. Also on record: unit not given here. On the procedure:
as §1
Initial rates of cleavage of several single stranded oligonucleotides were determined as described in connection with FIG. 1 with the exception that 50 nM wild-type peptide and 500 nM oligonucleotide were used. […]
I.D. No. 1. […] Reactions were quenched at 30 min. and digestion products analyzed by denaturing polyacrylamide gel electrophoresis.
Initial rates were determined as described in connection with FIG. 2. Peptide structure was determined by SDS PAGE and LC-MS.

The test system of test [7] is 20-mer RNA oligonucleotide 9713, Seq. I.D. No. 7. The test is described as follows: Multiple turnover kinetics of RNA cleavage, Lineweaver-Burk analysis. The note with it: zinc-free form of the finger peptide. As to the method:
as §1

In a further test the test system is single stranded RNA. The experiment in a line: RNA cleavage (ribonuclease) activity of the peptides. On the procedure: as §1
(§3) I.D. No. 1. Digestion reactions were performed as described in FIG. 1 in the presence of either Mg2+ (solid) or Mn2+ (hashed). Reactions were quenched at 30 min. and digestion products analyzed by denaturing polyacrylamide gel electrophoresis.

The test system of test [8] is RNA. The test is described as follows: pH dependence of RNA cleavage. The note with it: bell shaped pH profile, pH 4 to 9. On the procedure: I.D. No. 1. Initial rates were determined as described in connection with FIG. 2. For each rate determination the pH was adjusted using either 20 mM sodium acetate, pH 4, 20 mM sodium phosphate, pH 5 to pH 8 or 20 mM sodium carbonate, pH 9.

The test system of test [9] is RNA. The test is described as follows: Effect of divalent cations on RNA cleavage activity. The settings on record: Mg2+ and Mn2+. On the procedure:
as §3

Test [10] concerns Single strand DNA, double strand RNA and DNA, and 2′-methoxy modified sequences. The test is described as follows: Cleavage selectivity against other nucleic acids. As to the method:
as §2

In test [11] the test system is RNA substrate 9713, Seq. I.D. No. 7. The experiment in a line: Cleavage product analysis of RNA substrate. The text has this:
FIG. 3A presents a schematic cleavage product analysis of RNA aubstrate. RNA substrate 9713, Seq. I.D. No. 7, was internally labeled at the penultimate 3′ phosphate using (^32P) cytidine bisphosphate and T4 RNA ligase. The 3′ terminal phosphate was removed using calf intestinal phosphatase and the RNA digested with the wild type peptide as described in the schematic of FIG. 3A. The digestion reactions were divided into equal aliquots and one aliquot subjected to an additional dephosphorylation. The digested products were analyzed by denaturing polyacrylamide gel electrophoresis.

Usually Km stands for the concentration of substrate that gives half-maximal velocity. In the case of “HOOC-KTYQCQYCEY RSADSSNLKTHIKTKHSKEK-NH2 [Wild type]”, the V0 is 0 in test [1]; 1200 in test [2]; 422 in [3]; 153 in [4]; 0 in test [5]; 6100 in [6] (substrate 9713 (RNA), 50 nM wild-type peptide, 500 nM oligonucleotide). The substance also displayed a V0 in test [7] of 6 nmol/L/min. The “V0 (9713)” value in test [6] (substrate 9713 RNA, wild type and mutant peptides) is given as 6000 ± 130. The same substance had a Kcat in test [7] of 0.96 s⁻¹. Also, the Michaelis constant (Km) in [7] amounted to 0.105 µM. For the same substance, the “cleavage site specificity within single stranded RNA” value in the test on single stranded RNA is “preferentially cleave 5′-pyr-A-3′”. Also, the “cleavage rate of RNA sequences containing 5′-pyr-A-3′ relative to those without” value with single stranded RNA (fold faster) is 10-30 fold. The “ribonuclease activity on coordination of the peptide with zinc” value with single stranded RNA (peptide coordinated with zinc) was “complete loss of ribonuclease activity”. For the same substance, the “pH for RNA cleavage” value in the test on RNA [8] worked out at 7.0. Besides, the “requirement of divalent cations for catalysis” value in the test on RNA [9] is reported as “not to be required for catalysis”. For the same substance, the “hydrolysis of non single strand RNA substrates” value in [10] (listed as SEQ ID No. 1) is “not hydrolyzed”; in [10] (listed as the peptide), “not degraded”. The “termini of RNA cleavage products” value is 3′-phosphate and 5′-hydroxyl in test [11] (listed as SEQ ID No. 1); 3′-phosphate and 5′-hydroxyl termini in test [11] (listed as wild type peptide).
